Where no end group is shown, it is not given here.
Experiments:
[1] = tested on: 2C11 antibody; assay: Bethesda functional coagulation test: neutralization of the inhibiting activity of 2C11 by peptides; assay type: biochemical, human; settings: for neutralization of the inhibiting activity of 2C11 (in words): 2C11 3.5 nM
Text: This functional test (Kasper, C. K. & Pool, J. G. (1975) Letter: Measurement of mild factor VIII inhibitors in Bethesda units, Thromb Diath Haemorrh. 34, 875-6) consists of measuring the time necessary for a mixture composed of different coagulation factors (FIXa, FVIII, phospholipides, calcium etc.) in order to coagulate completely. The inhibiting effect of an antibody is characterized in such a test by an extension of the coagulation time, the inhibiting ability of the antibody becomes greater as the extension of the coagulation time increases. The inhibiting character of an antibody is expressed in Bethesda units, which corresponds to the reciprocal concentration of antibodies in order to neutralize 50% of the coagulant activity of the FVIII. In contrast, the neutralizing effect of the peptides is translated by a return to the initial coagulation time obtained in the absence of inhibitor.
The functional test followed is derived from the abovementioned test described by Kasper. The anti-FVIII monoclonal antibodies are diluted in an 0.05 M imidazole buffer, pH 7.3. An equal volume of this preparation (250 μl) with normal plasma buffered in imidazole (0.1 M, pH 7.4) are mixed and incubated for 2 hours at 37° C. Similarly, normal plasma buffered in imidazole is mixed with a non-specific antibody which constitutes the control. The inhibiting activity of an antibody is read from a semi-logarithmic graph representing the correlation between the residual activity of the FVIII and the inhibiting activity.
This mixture is then treated as above.
Firstly, the Inventors evaluated in a functional coagulation test (Bethesda test) the ability of peptide 107 to restore the procoagulant activity of FVIII in the presence of 2C11. FIG. 2 depicts the dose-dependent neutralization of the inhibiting activity of 2C11 by peptide 107. […] However, higher peptide concentrations are necessary in order to achieve an effectiveness similar to that of peptide 107 (data not shown).
FIG. 2 represents the evolution of the activity of factor VIII, evaluated by the Bethesda test, in the presence of 3.5 nM of 2C11 antibody as a function of peptide concentration. The 2C11 antibody was incubated overnight at 4° C. in the presence of a control peptide or peptide 107 (SCHAWSNRRTCR) (SEQ ID NO: 10) in variable concentration. The factor VIII was then incubated for 2 hours at 37° C. with these peptide-antibody mixtures or with peptide 107 alone, then its residual activity was measured with a coagulometer, in one stage.

[2] = tested on: 2C11 antibody (binding to factor VIII); assay: ELISA: inhibition of binding of 2C11 antibody to immobilized FVIII by soluble peptides; design: species or system human
Experimental: The FVIII is immobilized on the ON plate at 4° C. In parallel, the inhibitor antibody is preincubated with its epitope peptide(s) in the ON range at 4° C. in 0.1% PBS-T-2% milk. After saturation for 1 hour with 0.1% PBS-T-2% milk, the Ab-peptide mixtures are incubated with the immobilized FVIII for 2 hours at 37° C. Between each of these incubations, 3 washings with 0.1% PBS-T are carried out except after the saturation. Detection of the FVIII-Ab complex is achieved by a mouse or human anti-IgG coupled to peroxidase diluted to 1:3000 incubated for 1 hour at 37° C. After 5 washings with 0.1% PBS-T, the peroxidase substrate (OPD) is added. The reaction takes place for 30 minutes in the dark then measurement of the absorbance is carried out at 450 nm. After stopping the reaction by the addition of H2SO4 4N, a new measurement is carried out at 490 nm.
The blocking activity of the decoys can be verified in vitro in an ELISA test. […] The neutralizing ability of the decoy can be confirmed in a functional test such as the Bethesda Test (method of Kasper, [Kasper et al., 1975, Thromb. Diath. Haemorrh. 34, 875-6]).
The Inventors studied the ability of these soluble peptides to inhibit the binding of the 2C11 antibody to factor VIII in an ELISA test in vitro in the following manner: immobilization of FVIII, pre-incubation of 2C11 with the soluble peptides in the range (200 μM, 20 μM, 2 μM, 200 nM, 20 nM, 2 nM) overnight at 4° C., then incubation of this premixture on the FVIII, then development of the 2C11 antibody. The results obtained are indicated hereafter.

[3] = tested on: FVIII inhibitors in serums of hemophilia patients; assay: Reactivity of serums of hemophilia patients with inhibitors with peptide 107; assay type: binding, human; settings: out of 12 serums of hemophilia patients with inhibitors; preliminary study
Text: Thirdly, the Inventors looked at whether the neutralizing properties of peptide 107 vis-à-vis 2C11 could also be applied to other serums of hemophilia patients with inhibitors.

[4] = tested on: 2C11 antibody; assay: In vivo neutralization of 2C11 in mice deficient in FVIII given human FVIII; design: species or system mouse
Experimental: Secondly, the neutralization properties of peptide 107 were studied in vivo, using a mouse model deficient in FVIII. […] Having determined this, 2C11 antibody ([…]) incubated alone, in the presence of peptide 107, or a control peptide (650 μM and 700 μM, respectively) was injected into the tail vein of three groups of mice respectively. Thirty minutes later, the FVIII plasma count of these mice was reconstituted by the injection of 0.5 UI of human FVIII and after fifteen minutes the plasma procoagulant activity was measured.
The 2C11 antibody (16.5 nM) or a mixture containing the 2C11 antibody (16.5 nM) and peptide 107 (650 μM) or a control peptide (700 μM) was injected into the tail vein of a “knock out” mouse, deficient in factor VIII, at a rate of 2.5 μg of 2C11 antibody, 1 mg of peptide 107 and 1 mg of control peptide. After 30 minutes, 0.5 UI of human factor VIII was injected and the plasma procoagulant activity was then measured by a chromogenic test 15 minutes later.
The percentage of residual activity of factor VIII is represented on the Y-axis. Bar A represents the effect of the injection of factor VIII without prior injection of antibodies (100% of residual activity). Bar B represents the effect of the injection of the 2C11 antibody alone prior to the injection of factor VIII. […]

[5] = tested on: factor VIII; assay: Bethesda test: effect on procoagulant activity of factor VIII; assay type: biochemical, human; settings: no antibody
Text: This functional test (Kasper, C. K. & Pool, J. G. (1975) Letter: Measurement of mild factor VIII inhibitors in Bethesda units, Thromb Diath Haemorrh. 34, 875-6) consists of measuring the time necessary for a mixture composed of different coagulation factors (FIXa, FVIII, phospholipides, calcium etc.) in order to coagulate completely. The inhibiting effect of an antibody is characterized in such a test by an extension of the coagulation time, the inhibiting ability of the antibody becomes greater as the extension of the coagulation time increases. […]
The functional test followed is derived from the abovementioned test described by Kasper. […] The inhibiting activity of an antibody is read from a semi-logarithmic graph representing the correlation between the residual activity of the FVIII and the inhibiting activity.
FIG. 1 represents the effect of the 2C11 antibody on the activity of factor VIII evaluated by the Bethesda test. Factor VIII was incubated in the presence of 3.5 nM of 2C11 antibody for 2 hours at 37° C., the residual activity of factor VIII was then measured with a coagulometer, in one stage.
FIG. 2 represents the evolution of the activity of factor VIII, evaluated by the Bethesda test, in the presence of 3.5 nM of 2C11 antibody as a function of peptide concentration. […]

[6] = peptide concentration 0.002 (2 nM)
[7] = peptide concentration 0.02 (20 nM)
[8] = peptide concentration 20 (range: 20 μM)
[9] = peptide concentration 200 (range: 200 μM), pre-incubation overnight at 4° C.

Row | Sequence | neutralization of the inhibiting activity of 2C11 (in words) [1] | % inhibition of 2C11 binding to FVIII [2, 6] | % inhibition of 2C11 binding to FVIII [2, 7] | % inhibition of 2C11 binding to FVIII ([2]; peptide concentration 2 (2 μM)) | % inhibition of 2C11 binding to FVIII [2, 8] | % inhibition of 2C11 binding to FVIII [2, 9] | number of patient serums reacting with the peptide [3] | procoagulant activity of the FVIII maintained ([4]; 2C11 16.7 nM + peptide 650 μM injected in tail vein, 0.5 UI human FVIII after 30 min, measured 15 min later) | neutralizing effect on 2C11 in vivo (in words) ([4]; FVIII-deficient mice, peptide 107 650 μM, control peptide 700 μM) | IC50 ([1]; 2C11 concentration 3.5 nM) | peptide concentration for total neutralization of 2C11 inhibiting effect ([1]; 2C11 concentration 3.5 nM) | inhibition of the 2C11 Ab/FVIII bond (in words) [2] | effect of peptide incubated with FVIII alone on procoagulant activity of FVIII [5]
1 | RCHAWSNRKSCV (Ac-RCHAWSNRKSCV; cysteine pairing not given here) [compound 109] | effectively neutralize | 0% | 0% | 12.46% | 37.48% | 75.05% | – | – | – | – | – | – | –
2 | SCHAWSNRRTCR [peptide 107] | makes it possible to neutralize the effect of the 2C11 antibody | 0% | 0% | 37.33% | 80.04% | 90.48% | 2 | 52% | specifically neutralizes the effect of the 2C11 antibody in vivo | 19 µM | ~100 µM | the most effective | does not at all modify the procoagulant activity of the FVIII
3 | CSKWHNRSKRHC (Ac-CSKWHNRSKRHC; cysteine pairing not given here) [compound 105] | effectively neutralize | 0% | 0% | 10.27% | 45.04% | 75.58% | – | – | – | – | – | – | –
4 | QCHTWSNRRSCL (Ac-QCHTWSNRRSCL; cysteine pairing not given here) [compound 108] | effectively neutralize | 0% | 0% | 15.79% | 25.99% | 60.69% | – | – | – | – | – | – | –
5 | ECGSHAWGRRCK (chain 1 Ac-ECGSHAWGRRCK; chain 2 Ac-ECGSHAWGRRCK; cysteine pairing not given here) [compound 104] | effectively neutralize | 0% | 0% | 13.44% | 30.68% | 63.71% | – | – | – | – | – | – | –
6 | KCGRWSNRSSCT (Ac-KCGRWSNRSSCT; cysteine pairing not given here) [compound 103] | effectively neutralize | 0% | 0% | 3.47% | 28.26% | 62.73% | – | – | – | – | – | – | –
7 | CMKWSNRSSRWC (Ac-CMKWSNRSSRWC; cysteine pairing not given here) [compound 106] | effectively neutralize | 0% | 0% | 0.00% | 21.99% | 36.56% | – | – | – | – | – | – | –

Reference: patent publication US7632817B2, “Peptide decoys for the preparation of medicaments intended for the prevention or treatment of autoimmune pathologies or disorders linked to the appearance of antibodies directed against exogenous proteins” (Centre National de la Recherche Scientifique, priority 2001, dated 2009)
